The values below come from US12428412B2 (DANA-FARBER CANCER INSTITUTE, INC., priority 2018, dated 2025).

Each structure is given as a SMILES string. Entries after “also recorded” stand apart in the source; their conditions may differ.

By Cmax is commonly meant the maximum level reached in the sampled fluid or tissue. Broadly, the half-life is how long it takes for the measured level to halve. High values mean slow decline, low ones rapid decline.

For one data set, the target named is cereblon (CRBN) (Homo sapiens, UniProt Q96SW2). Nature of the data set: AlphaScreen assay, cereblon (CRBN). The format is binding. The source says: An AlphaLISA® assay for EP300 catalytic function (FIG. 3B) and an AlphaScreen™ assay for EP300 bromodomain and cereblon (CRBN) using biotinylated tagged small molecules as a probe for EP300 bromodomain and CRBN, respectively, were developed (FIG. 3C).
AlphaScreen™ assay was used to determine the binding of inventive degrader compound toward both CRBN and HAT domain.

Data set [1] concerns the target T1, EP300 (Homo sapiens, UniProt Q09472).
T1 construct: Whole cell lysates were collected using ice cold lysis buffer; endogenous in cells; host or cells: Kelly neuroblastoma cells (incl. Ch2.2, LACZ and CRBN knockout lines)
The experiment in a line: Cellular degradation assay (immunoblot) in Kelly NB cells, EP300. The format is cell-based. Particulars: dose or time dependent. On the procedure: Kelly Neuroblastoma cells were seeded at 1,000,000 cells per well in 6 well plates and were treated in a dose-dependent manner for 24 to 72 hours. Whole cell lysates were collected using ice cold lysis buffer [300 mM NaCl, 50 mM Tris-HCl, pH 7.5, 0.5% Triton X-100, 1% SDS, 1 mM dithiothreitol (DTT), Roche® protease inhibitor cocktail (1:000), 25 units/mL Benzonase] and blotted at a protein concentration of 20 μg. Histone extraction was performed using the EpiQuik™ Total Histone Extraction Kit (OP-0006-100, Epigentek) and blotted at a protein concentration of 4 μg.
Whole cell lysates were resolved in NuPAGE® 3-8% Tris-Acetate polyacrylamide gels (EA03785BOX, Invitrogen™) and histone extraction lysates in Bolt 4-12% Bis-Tris polyacrylamide gels (NWO4125BOX, Invitrogen™). Afterwards, gels were transferred to nitrocellulose membranes (LC2001, Invitrogen™). […]
The experimental protocol is the same as in Example 24. The protein level was determined by immunoblot using EP300 antibody, CBP antibody or H3K27ac antibody. […]
(In general: In western blotting, separated proteins are transferred to a membrane and probed.)

For another data set, the target named is T2, CBP (Homo sapiens, UniProt Q92793).
T2 construct: endogenous in cells; host or cells: Kelly neuroblastoma cells (incl. Ch2.2, LACZ and CRBN knockout lines)
The experiment in a line: Proteomics analysis in Kelly NB cells, CBP. It counts as cell-based. To be noted: 500 nM, 6 hours and 36 hours. On the procedure:
FIG. 9C is a plot of the proteomics analysis results after treating Kelly NB cells with CPD 1 (500 nM) at 6 hours and 36 hours.

A further data set concerns U266 cells. Nature of the data set: 6-day MTT assay, U266 cells. The format is cell-based. Particulars: 0-10 μM. On the procedure: Media from cell cultures was discarded. For adherent cells, the media was carefully aspirated. For suspension cells, the 96 well plate at 1,000×g, 4° C., was spun for 5 minutes in a microplate-compatible centrifuge and the media was carefully aspirated. The volume of existing media has to be the same for each sample. Fifty (50) μL of serum-free media and 50 μL of MTT solution were added into each well. The plate was incubated at 37° C. for 3 hours.
After incubation, 150 μL of MTT solvent were added into each well. The plate was wrapped in foil and shaken on an orbital shaker for 15 minutes. Absorbance was read at OD=590 nm. Reading was performed within 1 hour.
On the technique in general: Tetrazolium assays rely on reduction of a dye to a coloured formazan, in cell work by metabolically active cells.

Data set [2] has as its target T1, EP300. Nature of the data set: Immunoblot in CRBN knockout Kelly cell lines, EP300. Particulars: CRBN-1 and CRBN-3 Kelly lines, 500 nM. It counts as cell-based. The procedure: CPD 1 was tested in CRBN knockout (k/o) Kelly cell lines. The experimental protocol is the same as in Example 24.
Data set [3] can be described thus: Mouse PK after intraperitoneal injection, blood concentration by LCMS/MS. To be noted: IP 10 mg/kg, male CD1 mice. The format is in vivo. On the procedure:
The compound concentration in animal blood was measured by LCMS/MS through a series bleeding at different time points. […] A-485 half life is 0.7 h in mice.
(§1) Maximum tolerance dose (MTD) of each candidate was determined in zebrafish embryos. 3-day-old zebrafish embryos were exposed to different drug concentrations and monitored for adverse health effects. […] Experiments were first carried out with compound CPD 1 as a guide in the further design of MTD assessment of lead EP300 degraders (FIG. 6B). The MTD of the degrader is also determined in mice in the similar manor. Briefly, mice were dosed with test compounds and blood and plasma is isolated at specific intervals post-administration (0.083, 0.25, 0.5, 1, 2, 4, 8, 12, and 24 h) and quantified for the presence of test article by LC/MS/MS (n=5 mice/compound). In vivo mouse PK experiments were used to determine these parameters and inform iterative rounds of medicinal chemistry for optimization of EP300 degraders (FIG. 6A). As degraders have a relatively large molecular weight, the proper formulation is investigated to increase the solubility and stability of the degraders for in vivo study. Together, these parameters, including the established MTD, are used to guide the in vivo study design, such as administration method, dosing, and schedule for the following experiment. The information obtained was also used to guide the degrader optimization conducted in Example 36.

The next data set has as its system NB zebra fish model. Nature of the data set: NB zebra fish model. The format is in vivo. On the procedure:
as §1

T1 sequence (Q09472 whole entry): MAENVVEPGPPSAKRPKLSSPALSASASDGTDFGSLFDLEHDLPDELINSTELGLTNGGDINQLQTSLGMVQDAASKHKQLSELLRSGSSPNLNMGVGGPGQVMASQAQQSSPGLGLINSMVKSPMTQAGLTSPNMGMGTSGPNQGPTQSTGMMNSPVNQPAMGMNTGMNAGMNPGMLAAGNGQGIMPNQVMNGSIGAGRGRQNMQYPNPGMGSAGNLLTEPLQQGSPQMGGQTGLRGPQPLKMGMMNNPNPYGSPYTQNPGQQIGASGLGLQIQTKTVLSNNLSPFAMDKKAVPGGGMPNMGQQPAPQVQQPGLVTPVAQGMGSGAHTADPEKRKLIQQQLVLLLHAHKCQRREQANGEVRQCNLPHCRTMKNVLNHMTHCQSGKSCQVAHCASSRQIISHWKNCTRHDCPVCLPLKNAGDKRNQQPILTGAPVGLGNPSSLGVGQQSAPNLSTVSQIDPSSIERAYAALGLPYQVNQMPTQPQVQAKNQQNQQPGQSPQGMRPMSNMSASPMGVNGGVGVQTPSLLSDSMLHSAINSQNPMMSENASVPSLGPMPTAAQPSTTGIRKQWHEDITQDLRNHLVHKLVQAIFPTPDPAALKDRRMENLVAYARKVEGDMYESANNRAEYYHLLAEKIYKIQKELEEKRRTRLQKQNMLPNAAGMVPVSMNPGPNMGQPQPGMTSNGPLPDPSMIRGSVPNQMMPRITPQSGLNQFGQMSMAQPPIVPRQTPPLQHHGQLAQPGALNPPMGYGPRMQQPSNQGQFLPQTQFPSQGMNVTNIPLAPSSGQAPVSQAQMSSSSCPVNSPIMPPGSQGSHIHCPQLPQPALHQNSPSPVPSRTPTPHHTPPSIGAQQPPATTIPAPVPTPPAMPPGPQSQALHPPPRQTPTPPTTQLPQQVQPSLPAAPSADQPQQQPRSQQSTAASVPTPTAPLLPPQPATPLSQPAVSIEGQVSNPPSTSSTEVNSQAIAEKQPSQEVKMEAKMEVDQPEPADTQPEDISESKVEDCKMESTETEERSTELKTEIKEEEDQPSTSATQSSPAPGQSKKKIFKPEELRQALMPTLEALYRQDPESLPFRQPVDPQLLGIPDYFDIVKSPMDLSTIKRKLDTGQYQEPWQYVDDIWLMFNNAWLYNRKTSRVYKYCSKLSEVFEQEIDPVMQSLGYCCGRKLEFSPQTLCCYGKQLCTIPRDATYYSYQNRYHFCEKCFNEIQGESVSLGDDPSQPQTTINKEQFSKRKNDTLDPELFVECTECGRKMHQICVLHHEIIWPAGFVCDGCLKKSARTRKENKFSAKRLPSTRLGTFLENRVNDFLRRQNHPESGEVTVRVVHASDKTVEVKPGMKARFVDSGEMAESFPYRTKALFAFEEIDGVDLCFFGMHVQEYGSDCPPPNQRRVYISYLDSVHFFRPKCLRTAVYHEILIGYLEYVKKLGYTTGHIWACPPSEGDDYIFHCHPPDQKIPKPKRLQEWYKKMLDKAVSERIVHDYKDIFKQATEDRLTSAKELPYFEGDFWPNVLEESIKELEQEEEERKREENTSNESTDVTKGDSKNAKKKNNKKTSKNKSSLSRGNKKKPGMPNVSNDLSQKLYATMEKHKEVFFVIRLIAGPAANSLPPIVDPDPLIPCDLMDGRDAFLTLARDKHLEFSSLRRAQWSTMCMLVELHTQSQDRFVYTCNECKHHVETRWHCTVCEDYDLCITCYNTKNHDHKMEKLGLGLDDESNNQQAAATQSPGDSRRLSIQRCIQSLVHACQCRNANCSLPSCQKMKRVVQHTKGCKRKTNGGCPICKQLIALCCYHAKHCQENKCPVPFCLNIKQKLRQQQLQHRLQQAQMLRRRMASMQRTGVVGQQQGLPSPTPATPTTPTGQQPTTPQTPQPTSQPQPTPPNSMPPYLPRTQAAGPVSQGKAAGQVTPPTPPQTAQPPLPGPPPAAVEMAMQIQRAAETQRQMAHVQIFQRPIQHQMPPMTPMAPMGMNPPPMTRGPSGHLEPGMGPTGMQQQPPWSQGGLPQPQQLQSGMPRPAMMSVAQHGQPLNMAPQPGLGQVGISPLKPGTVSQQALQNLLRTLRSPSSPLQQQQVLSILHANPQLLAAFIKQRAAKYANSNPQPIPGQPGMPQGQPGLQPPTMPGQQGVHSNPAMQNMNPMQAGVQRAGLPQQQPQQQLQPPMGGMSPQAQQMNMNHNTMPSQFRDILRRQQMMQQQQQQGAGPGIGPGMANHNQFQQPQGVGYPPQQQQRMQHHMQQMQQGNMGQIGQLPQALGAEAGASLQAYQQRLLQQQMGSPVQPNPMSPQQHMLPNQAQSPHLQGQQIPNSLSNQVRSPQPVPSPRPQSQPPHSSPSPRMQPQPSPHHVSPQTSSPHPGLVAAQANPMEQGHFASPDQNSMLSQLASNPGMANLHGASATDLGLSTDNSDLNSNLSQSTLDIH
Chain of cereblon (CRBN) (Q96SW2 whole entry, the tested form may be a part): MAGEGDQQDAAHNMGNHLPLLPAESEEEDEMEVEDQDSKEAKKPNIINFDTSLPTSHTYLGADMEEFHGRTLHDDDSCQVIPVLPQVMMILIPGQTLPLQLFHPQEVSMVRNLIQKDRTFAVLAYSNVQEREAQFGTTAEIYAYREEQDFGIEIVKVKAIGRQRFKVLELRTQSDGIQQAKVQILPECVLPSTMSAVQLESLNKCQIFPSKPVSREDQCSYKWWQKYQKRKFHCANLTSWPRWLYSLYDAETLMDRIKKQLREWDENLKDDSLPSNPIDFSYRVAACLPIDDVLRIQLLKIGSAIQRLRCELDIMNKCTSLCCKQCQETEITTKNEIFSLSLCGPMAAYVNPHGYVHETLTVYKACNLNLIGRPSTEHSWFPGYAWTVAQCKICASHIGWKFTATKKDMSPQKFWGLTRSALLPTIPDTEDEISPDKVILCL

As to `C[C@H](N(Cc1ccc(F)cc1)C(=O)CN1C(=O)O[C@@]2(CCc3cc(NC(=O)CCCCCCCCCCCNc4ccc5c(c4)C(=O)N(C4CCC(=O)NC4=O)C5=O)ccc32)C1=O)C(F)(F)F` (stereo partly drawn) [CPD 1, 12-((2-(2,6-dioxopiperidin-3-yl)-1,3-dioxoisoindolin-5-yl)amino)-N—((R)-3′-(2-((4-fluorobenzyl)((S)-1,1,1-trifluoropropan-2-yl)amino)-2-oxoethyl)-2′,4′-dioxo-2,3-dihydrospiro[indene-1,5′-oxazolidin]-5-yl)dodecanamide], at cereblon (CRBN), the “binding to cereblon (CRBN)” value is “bound and bind”. Further, at EP300 [1], the EP300 degradation result is “selective degradation of EP300; also recorded: clear degradation of EP300”. For the same compound, the “CBP level (proteomics)” value at CBP is reported as “No changes in the CBP level were observed”. Moreover, the “growth inhibition compared with A485” value with U266 cells was “outperformed inhibitor A485”. For the same compound, at EP300 [2], the “EP300 degradation in CRBN k/o lines” value is “did not degrade”. The “toxicity in PK study” value in data set [3] is listed as “No toxicity was observed”. In data set [3] (mouse, whole blood, n=3), this compound gave a Cmax of 5 µM and a half-life of 13 h. In addition, the tumor growth inhibition entry in the data set on NB zebra fish model (NB zebra fish model, 0.25 μM and 0.5 μM) is “tumor growth inhibition”. Also, the “toxicity in zebra fish study” value in the data set with NB zebra fish model (zebra fish) is “No toxicity was observed”.
